Assay results taken from patent US20260207602A1, “EGFR INHIBITORS” (Blueprint Medicines Corporation, priority 2022, published 2026).
Where two headings read alike, the source gives them in different places.

Columns and labels:
EGFR (d746-750) = molecular target: T1, EGFR (d746-750) (Homo sapiens, UniProt P00533, DEL746-750); test: Biochemical EGFR inhibition assay (Caliper mobility shift), EGFR (d746-750); conditions: read-out: Enz EGFR Exon 19-del IC50
T1 construct: purchased SignalChem E10-122JG
How it was run: (§1)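 Mobility-shift readout: phosphorylated and unphosphorylated 5-FAM peptide (2.5 µM) separated electrophoretically. Reactions at room temperature (25 °C), 1.0 mM ATP or ATP Km, HEPES pH 7.5 with MgCl2, Brij-35, DTT and 1.0% DMSO; terminated at 10–20% turnover with 35 mM EDTA. Apparent IC50 fitted.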

EGFR L858R = molecular target: T2, EGFR L858R (Homo sapiens, UniProt P00533, L858R); test: Biochemical EGFR inhibition assay (Caliper mobility shift), EGFR L858R; conditions: read-out: Enz EGFR L858R IC50
T2 construct: purchased SignalChem E10-122BG
How it was run: as §1

[1] = molecular target: intracellular phosphorylation of EGFR (Tyr1068) in PC-9 cells (Homo sapiens, UniProt P00533, DEL746-750); test: PC-9 pEGFR AlphaLISA assay; assay type: cell-based; conditions: 4 hours incubation, read-out: Phos EGFR PC9 IC50
How it was run: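 PC-9 cells (EGFR del746-750) in phenol-free DMEM/10% FBS, adhered overnight, then exposed to 10-point 4-fold compound dilutions for 4 h at 37 °C. Lysates assayed for pEGFR Tyr1068 by AlphaLISA SureFire Ultra; IC50 from percent pEGFR inhibition vs log concentration.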

[2] = biochemical Caliper mobility shift assay, EGFR Exon 19-del enzyme
[3] = biochemical Caliper mobility shift assay, EGFR L858R enzyme

T1 sequence (P00533 with tags, fused parts or gaps DEL746-750 limits assumed): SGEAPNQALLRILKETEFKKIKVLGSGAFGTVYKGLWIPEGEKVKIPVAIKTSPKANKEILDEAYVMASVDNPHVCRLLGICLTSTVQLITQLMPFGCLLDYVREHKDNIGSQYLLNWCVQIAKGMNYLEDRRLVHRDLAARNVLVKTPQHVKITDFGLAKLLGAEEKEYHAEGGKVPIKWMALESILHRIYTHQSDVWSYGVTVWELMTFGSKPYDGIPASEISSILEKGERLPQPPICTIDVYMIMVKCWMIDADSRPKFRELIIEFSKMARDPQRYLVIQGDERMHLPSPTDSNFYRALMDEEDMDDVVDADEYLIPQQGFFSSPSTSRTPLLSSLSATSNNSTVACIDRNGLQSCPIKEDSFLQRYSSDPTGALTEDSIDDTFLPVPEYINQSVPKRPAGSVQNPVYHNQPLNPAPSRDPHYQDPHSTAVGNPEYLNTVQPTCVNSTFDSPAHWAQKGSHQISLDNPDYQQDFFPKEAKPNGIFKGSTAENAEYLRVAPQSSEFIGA
Chain of intracellular phosphorylation of EGFR (Tyr1068) in PC-9 cells (P00533 with tags, fused parts or gaps DEL746-750): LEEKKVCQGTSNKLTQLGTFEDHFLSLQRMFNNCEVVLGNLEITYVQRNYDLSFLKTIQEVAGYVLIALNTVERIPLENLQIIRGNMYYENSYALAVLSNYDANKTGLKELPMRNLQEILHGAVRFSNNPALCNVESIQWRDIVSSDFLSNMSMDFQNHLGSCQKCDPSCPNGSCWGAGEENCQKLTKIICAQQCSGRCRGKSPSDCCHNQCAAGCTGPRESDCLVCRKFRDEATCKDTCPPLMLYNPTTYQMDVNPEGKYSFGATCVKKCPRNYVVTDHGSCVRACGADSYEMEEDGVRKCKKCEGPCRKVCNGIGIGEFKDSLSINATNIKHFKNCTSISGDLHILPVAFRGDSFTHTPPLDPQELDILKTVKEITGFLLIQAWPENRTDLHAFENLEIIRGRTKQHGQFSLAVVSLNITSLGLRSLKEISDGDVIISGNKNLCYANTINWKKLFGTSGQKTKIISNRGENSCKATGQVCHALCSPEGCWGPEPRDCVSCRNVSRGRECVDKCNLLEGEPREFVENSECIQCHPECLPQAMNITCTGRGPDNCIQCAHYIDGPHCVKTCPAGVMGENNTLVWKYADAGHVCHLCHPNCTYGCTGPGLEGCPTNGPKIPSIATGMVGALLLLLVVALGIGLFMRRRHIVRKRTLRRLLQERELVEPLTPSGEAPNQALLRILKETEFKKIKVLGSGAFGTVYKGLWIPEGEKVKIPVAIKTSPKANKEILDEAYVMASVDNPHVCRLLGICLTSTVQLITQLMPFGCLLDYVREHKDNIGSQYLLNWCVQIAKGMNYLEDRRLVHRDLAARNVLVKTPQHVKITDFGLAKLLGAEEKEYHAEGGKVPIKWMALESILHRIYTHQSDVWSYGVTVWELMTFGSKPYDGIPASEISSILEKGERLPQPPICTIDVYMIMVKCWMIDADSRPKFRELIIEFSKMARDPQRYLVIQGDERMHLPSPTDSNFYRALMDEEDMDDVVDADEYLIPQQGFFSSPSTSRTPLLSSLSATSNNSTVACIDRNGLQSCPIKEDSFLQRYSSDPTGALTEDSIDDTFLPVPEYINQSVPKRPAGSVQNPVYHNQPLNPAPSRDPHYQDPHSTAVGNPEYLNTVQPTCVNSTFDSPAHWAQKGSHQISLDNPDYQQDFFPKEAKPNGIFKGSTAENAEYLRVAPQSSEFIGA
T2 sequence (P00533 25-1210 L858R): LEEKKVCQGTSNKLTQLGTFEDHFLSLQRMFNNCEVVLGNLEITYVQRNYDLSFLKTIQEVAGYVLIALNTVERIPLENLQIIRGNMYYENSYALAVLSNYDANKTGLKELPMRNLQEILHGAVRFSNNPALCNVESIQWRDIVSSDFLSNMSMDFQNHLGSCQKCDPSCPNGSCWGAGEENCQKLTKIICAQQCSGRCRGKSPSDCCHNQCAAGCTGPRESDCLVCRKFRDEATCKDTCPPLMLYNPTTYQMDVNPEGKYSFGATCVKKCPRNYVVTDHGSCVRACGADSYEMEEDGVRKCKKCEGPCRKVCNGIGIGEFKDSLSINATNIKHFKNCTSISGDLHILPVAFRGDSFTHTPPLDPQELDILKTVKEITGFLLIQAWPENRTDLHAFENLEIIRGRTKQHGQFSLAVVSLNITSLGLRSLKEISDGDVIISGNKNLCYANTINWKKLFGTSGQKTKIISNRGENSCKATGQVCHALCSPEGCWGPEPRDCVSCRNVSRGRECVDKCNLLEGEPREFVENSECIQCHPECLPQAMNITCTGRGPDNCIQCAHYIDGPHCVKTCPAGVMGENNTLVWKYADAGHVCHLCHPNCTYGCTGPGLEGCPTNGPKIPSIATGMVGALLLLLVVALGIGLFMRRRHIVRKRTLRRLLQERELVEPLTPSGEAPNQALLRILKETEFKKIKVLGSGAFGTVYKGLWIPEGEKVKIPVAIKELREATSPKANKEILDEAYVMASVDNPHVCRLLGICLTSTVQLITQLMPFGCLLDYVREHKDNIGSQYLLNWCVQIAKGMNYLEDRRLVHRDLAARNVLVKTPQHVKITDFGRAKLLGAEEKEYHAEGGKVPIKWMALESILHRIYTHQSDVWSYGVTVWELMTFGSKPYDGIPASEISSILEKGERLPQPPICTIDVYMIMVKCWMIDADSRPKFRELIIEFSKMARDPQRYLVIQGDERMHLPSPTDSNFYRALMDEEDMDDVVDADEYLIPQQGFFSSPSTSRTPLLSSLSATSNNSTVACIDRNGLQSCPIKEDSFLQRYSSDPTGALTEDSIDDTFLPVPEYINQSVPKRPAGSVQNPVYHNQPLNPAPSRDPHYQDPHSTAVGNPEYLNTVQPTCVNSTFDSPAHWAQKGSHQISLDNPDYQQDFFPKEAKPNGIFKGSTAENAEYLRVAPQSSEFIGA

| SMILES | IC50 (EGFR (d746-750); [2]) | IC50 (EGFR L858R; [3]) | IC50 [1] | IC50 (EGFR (d746-750)) | IC50 (EGFR L858R) |
| --- | --- | --- | --- | --- | --- |
| CN1CC[C@@H](F)[C@@H](Oc2cc(-c3cnn(C)c3)cc3ncnc(Nc4ccc5ncsc5c4)c23)C1 (single isomer, unassigned) [Example 161] | ≤ 10 nM | ≤ 10 nM | ≤ 10 nM | – | – |
| C[C@@H](CN(C)C)Oc1cc(-c2cnn(C)c2)cc2ncnc(Nc3ccc4ncsc4c3)c12 (single isomer, unassigned) [Example 160, (R)—N-(5-((1-(dimethylamino)propan-2-yl)oxy)-7-(1-methyl-1H-pyrazol-4-yl)quinazolin-4-yl)benzo[d]thiazol-6-amine or (S)—N-(5-((1-(dimethylamino)propan-2-yl)oxy)-7-(1-methyl-1H-pyrazol-4-yl)quinazolin-4-yl)benzo[d]thiazol-6-amine] | ≤ 10 nM | ≤ 10 nM | ≤ 10 nM | – | – |
| COC[C@@H](C)Oc1cc(N2CCN3CCC[C@@H]3C2)cc2ncnc(Nc3ccc4ncsc4c3)c12 [Example 192, N-(7-((R)-hexahydropyrrolo[1,2-a]pyrazin-2(1H)-yl)-5-(((R)-1-methoxypropan-2-yl)oxy)quinazolin-4-yl)benzo[d]thiazol-6-amine] | ≤ 10 nM | ≤ 10 nM | 10.1 to 50 nM | – | – |
| COCCN1CCN(c2cc(O[C@H](C)COC)c3c(Nc4ccc5ncsc5c4)ncnc3c2)CC1 [Example 201, (R)-N-(7-(4-(2-methoxyethyl)piperazin-1-yl)-5-((1-methoxypropan-2-yl)oxy)quinazolin-4-yl)benzo[d]thiazol-6-amine] | ≤ 10 nM | ≤ 10 nM | 10.1 to 50 nM | – | – |
| C[C@@H]1CN(c2cc(O[C@H](C)C3COC3)c3c(Nc4ccc5ncsc5c4)ncnc3c2)C[C@H](C)O1 [Example 193, N-(7-((2S,6R)-2,6-dimethylmorpholino)-5-((R)-1-(oxetan-3-yl)ethoxy)quinazolin-4-yl)benzo[d]thiazol-6-amine] | ≤ 10 nM | ≤ 10 nM | ≤ 10 nM | – | – |
| COc1cc2ncnc(Nc3ccc4ncsc4c3)c2cc1-c1cnn(C2CCN(C)CC2)c1 [Example 163, N-(7-methoxy-6-(1-(1-methylpiperidin-4-yl)-1H-pyrazol-4-yl)quinazolin-4-yl)benzo[d]thiazol-6-amine] | ≤ 10 nM | ≤ 10 nM | ≤ 10 nM | – | – |
| C[C@H](CO)Oc1cc(N2CCN(C)CC2)cc2ncnc(Nc3ccc4ncsc4c3F)c12 (single isomer, unassigned) [Example 296] | ≤ 10 nM | ≤ 10 nM | ≤ 10 nM | – | – |
| Cc1cn(-c2cc(O[C@H](C)C3COC3)c3c(Nc4ccc5ncsc5c4)ncnc3c2)c(=O)n1C [Example 202, (R)-1-(4-(benzo[d]thiazol-6-ylamino)-5-(1-(oxetan-3-yl)ethoxy)quinazolin-7-yl)-3,4-dimethyl-1,3-dihydro-2H-imidazol-2-one] | ≤ 10 nM | ≤ 10 nM | ≤ 10 nM | – | – |
| CC(C)Oc1cc(-c2cnn(C)c2)cc2ncnc(Nc3ccc4ncsc4c3)c12 [Example 405, N-(5-isopropoxy-7-(1-methyl-1H-pyrazol-4-yl)quinazolin-4-yl)benzo[d]thiazol-6-amine] | ≤ 10 nM | ≤ 10 nM | ≤ 10 nM | – | – |
| OC(Cn1cc(-c2cc(OC3CCOCC3)c3c(Nc4ccc5ncsc5c4)ncnc3c2)cn1)C(F)(F)F (stereo not drawn) [Example A57, 3-(4-(4-(benzo[d]thiazol-6-ylamino)-5-((tetrahydro-2H-pyran-4-yl)oxy)quinazolin-7-yl)-1H-pyrazol-1-yl)-1,1,1-trifluoropropan-2-ol] | ≤ 10 nM | ≤ 10 nM | 10.1 to 50 nM | – | – |
| C[C@@H](Oc1cc(-c2cnn(C)c2)cc2ncnc(Nc3ccc4ncsc4c3F)c12)[C@H]1CCOC1 (single isomer, unassigned) [Example 88] | ≤ 10 nM | ≤ 10 nM | ≤ 10 nM | – | – |
| CC(Oc1cc(-c2cn(C)nc2OC(F)F)cc2ncnc(Nc3ccc4ncsc4c3)c12)C1COC1 (single isomer, unassigned) [Example 173] | ≤ 10 nM | ≤ 10 nM | ≤ 10 nM | – | – |
| C[C@@H](Oc1c(F)c(-c2cnn(C)c2)cc2ncnc(Nc3ccc4ncsc4c3F)c12)C1COC1 (single isomer, unassigned) [Example A27] | ≤ 10 nM | ≤ 10 nM | 10.1 to 50 nM | – | – |
| CC(C)(O)Cn1cc(-c2cc(OC3CCOCC3)c3c(Nc4ccc5ncsc5c4)ncnc3c2)cn1 [Example 190, 1-(4-(4-(benzo[d]thiazol-6-ylamino)-5-((tetrahydro-2H-pyran-4-yl)oxy)quinazolin-7-yl)-1H-pyrazol-1-yl)-2-methylpropan-2-ol] | ≤ 10 nM | ≤ 10 nM | ≤ 10 nM | – | – |
| COC[C@@H](C)Oc1cc(-c2cnn(C)c2)cc2ncnc(Nc3ccc4ncsc4c3F)c12 [Example 91, (R)-7-fluoro-N-(5-((1-methoxypropan-2-yl)oxy)-7-(1-methyl-1H-pyrazol-4-yl)quinazolin-4-yl)benzo[d]thiazol-6-amine] | ≤ 10 nM | ≤ 10 nM | ≤ 10 nM | – | – |
| CN1CCC[C@H](Oc2cc(C#CCN3CCOCC3)cc3ncnc(Nc4ccc5ncsc5c4)c23)C1 [Example A25, N-(1,3-benzothiazol-6-yl)-5-{[(3S)-1-methylpiperidin-3-yl]oxy}-7-[3-(morpholin-4-yl)prop-1-yn-1-yl]quinazolin-4-amine] | – | – | 10.1 to 50 nM | < 10 nM | < 10 nM |
| Cn1ccc(-c2cc3ncnc(Nc4ccc5ncsc5c4)c3cc2NC(=O)CCN2CCCCC2)n1 [Example A47, N-(4-(benzo[d]thiazol-6-ylamino)-7-(1-methyl-1H-pyrazol-3-yl)quinazolin-6-yl)-3-(piperidin-1-yl)propanamide] | ≤ 10 nM | ≤ 10 nM | ≤ 10 nM | – | – |
| Cn1cc(-c2cc(OC(CO)CO)c3c(Nc4ccc5ncsc5c4)ncnc3c2)cn1 [Example 29, 2-((4-(benzo[d]thiazol-6-ylamino)-7-(1-methyl-1H-pyrazol-4-yl)quinazolin-5-yl)oxy)propane-1,3-diol] | ≤ 10 nM | ≤ 10 nM | 10.1 to 50 nM | – | – |
| COc1nn(C)cc1-c1cc(O[C@H](C)C2COC2)c2c(Nc3ccc4ncsc4c3F)ncnc2c1 (single isomer, unassigned) [Example 78] | ≤ 10 nM | ≤ 10 nM | ≤ 10 nM | – | – |
| COc1nn(C)cc1-c1cc(OC2CCN(C)CC2)c2c(Nc3ccc4ncsc4c3F)ncnc2c1 [Example 320, 7-fluoro-N-(7-(3-methoxy-1-methyl-1H-pyrazol-4-yl)-5-((1-methylpiperidin-4-yl)oxy)quinazolin-4-yl)benzo[d]thiazol-6-amine] | ≤ 10 nM | ≤ 10 nM | 10.1 to 50 nM | – | – |
| CO[C@@H]1CCN(c2cc(O[C@H](C)C3COC3)c3c(Nc4ccc5ncsc5c4)ncnc3c2)C1 [Example 198, N-(7-((R)-3-methoxypyrrolidin-1-yl)-5-((R)-1-(oxetan-3-yl)ethoxy)quinazolin-4-yl)benzo[d]thiazol-6-amine] | ≤ 10 nM | ≤ 10 nM | ≤ 10 nM | – | – |
| CCN1CCN(C(=O)Nc2cc3c(Nc4ccc5ncsc5c4)ncnc3cc2-c2ccn(C)n2)[C@H](C)C1 [Example 397, (R)-N-(4-(benzo[d]thiazol-6-ylamino)-7-(1-methyl-1H-pyrazol-3-yl)quinazolin-6-yl)-4-ethyl-2-methylpiperazine-1-carboxamide] | ≤ 10 nM | ≤ 10 nM | ≤ 10 nM | – | – |
| COCCOc1cc(O[C@H](C)C2COC2)c2c(Nc3ccc4ncsc4c3F)ncnc2c1 (single isomer, unassigned) [Example 85] | ≤ 10 nM | ≤ 10 nM | 10.1 to 50 nM | – | – |
| C[C@@H](Oc1cc(-c2cnn(CC(C)(C)O)c2)cc2ncnc(Nc3ccc4ncsc4c3)c12)C1COC1 (single isomer, unassigned) [Example 127] | ≤ 10 nM | ≤ 10 nM | ≤ 10 nM | – | – |
| C[C@@H](Oc1cc(-c2cnn(C)c2)cc2ncnc(Nc3ccc4ncsc4c3)c12)C1COC1 [Example 133, (R)—N-(7-(1-methyl-1H-pyrazol-4-yl)-5-(1-(oxetan-3-yl)ethoxy)quinazolin-4-yl)benzo[d]thiazol-6-amine] | ≤ 10 nM | ≤ 10 nM | ≤ 10 nM | – | – |
| C[C@H](Oc1cc(-c2cnn(C)c2)cc2ncnc(Nc3ccc4ncsc4c3)c12)C(F)(F)F [Example 68, (S)-N-(7-(1-methyl-1H-pyrazol-4-yl)-5-((1,1,1-trifluoropropan-2-yl)oxy)quinazolin-4-yl)benzo[d]thiazol-6-amine] | ≤ 10 nM | ≤ 10 nM | ≤ 10 nM | – | – |
| Cn1cc(-c2cc(OC3COCOC3)c3c(Nc4ccc5ncsc5c4)ncnc3c2)cn1 [Example A59, N-(5-((1,3-dioxan-5-yl)oxy)-7-(1-methyl-1H-pyrazol-4-yl)quinazolin-4-yl)benzo[d]thiazol-6-amine] | ≤ 10 nM | ≤ 10 nM | 10.1 to 50 nM | – | – |
| Cn1cc(-c2cc(OC3CC3)c3c(Nc4ccc5ncsc5c4F)ncnc3c2)cn1 [Example 76, N-(5-cyclopropoxy-7-(1-methyl-1H-pyrazol-4-yl)quinazolin-4-yl)-7-fluorobenzo[d]thiazol-6-amine] | ≤ 10 nM | ≤ 10 nM | 10.1 to 50 nM | – | – |
